Measurements from patent US6187793A, “7-[(Piperidin-1-YL)-Propoxy]-chromen-4-one derivatives, their preparation and their pharmaceutical use” (Ferrer Internacional, S.A., priority 1997, dated 2001).
Entries after “also recorded” stand apart in the source; their conditions may differ. Read-outs that look alike come from different tables or passages of the source.

Legend:
[1] = catalepsy test (cataleptic activity, oral route); settings: rat
Protocol: (§1) For assessment, each animal was placed on the bottom of a small upright box ([…]). The walls of the box were made of translucent methacrylate except one of the lateral surfaces (7.5 cm wide) which was a 3-mm wire mesh. The position of the animal was scored for 2 minutes according to the following criteria: 0=four paws on the floor; 1=three paws on the floor; 2=two paws on the floor; 3=one paw on the floor; and 4=four paws holding the wire mesh. If an animal keeps several positions within the 2-min observation, the seconds elapsed in each position will be recorded. Finally, mean scoring was calculated.

[2] = system: apomorphine-induced climbing behaviour; experiment: inhibition test of apomorphine-induced climbing behaviour; type: in vivo, male Swiss mice; settings: Mus musculus, 1 h, read-out: Climbing ID50
Protocol: For the practical performance of this experiment, male Swiss mice weighing 22-24 g were used. One week prior to experiment, animals were kept in our facilities at a temperature of 20-22° C. and 12/12 h light-dark cycle, and had free access to food and water. Two hours prior to experiment, the animals were placed in individual cages without access to food.
Animals were administered orally with test drug or 0.25% agar at time 0. After 60 minutes, apomorphine was subcutaneously injected at a dose of 1 mg/kg, and after further 70 minutes the animal's behaviour was assessed. Two additional assessments were performed at 10-min intervals.
as §1

[3] = therapeutic index (catalepsy ED50 / climbing ID50); settings: for selectivity ratio: in vivo, po; for therapeutic index versus compound of Example 2' of ES 9600323 and haloperidol: in words, from Table 3
Protocol: as §1

[4] = target: T1, histamine H1 receptors (Cavia porcellus, UniProt P31389); experiment: biochemical; type: binding, guinea-pig; settings: for potency as ligand of H1 receptors versus compound of Example 2' of ES 9600323 / potency as ligand of H1 receptors versus promethazine: in words, from Table 2
T1 construct: incubation of guinea-pig cerebellum membranes; from tissue; host or cells: guinea-pig cerebellum membranes
T1 sequence (P31389 whole entry): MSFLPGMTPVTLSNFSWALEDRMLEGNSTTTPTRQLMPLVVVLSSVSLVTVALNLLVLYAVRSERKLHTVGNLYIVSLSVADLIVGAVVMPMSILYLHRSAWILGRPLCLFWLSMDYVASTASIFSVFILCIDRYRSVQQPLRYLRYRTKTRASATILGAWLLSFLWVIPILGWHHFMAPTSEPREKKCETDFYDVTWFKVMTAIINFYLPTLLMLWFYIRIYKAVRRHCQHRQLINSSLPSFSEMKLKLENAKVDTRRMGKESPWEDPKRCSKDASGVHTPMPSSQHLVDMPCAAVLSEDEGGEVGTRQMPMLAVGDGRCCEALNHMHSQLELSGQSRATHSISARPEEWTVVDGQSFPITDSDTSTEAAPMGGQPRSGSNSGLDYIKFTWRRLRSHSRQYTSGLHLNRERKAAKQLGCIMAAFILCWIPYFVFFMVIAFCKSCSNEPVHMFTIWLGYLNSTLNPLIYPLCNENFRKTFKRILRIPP
Protocol: The bound radioactivity was separated by filtration (Whatman GF/B) in a Brandel Harvester. The amount of receptor-bound radioactivity present in the filters was determined using a Packard 1800TR counter. The specific binding was established with a 1 μM concentration of triprolidine.

[5] = target: T2, 5-HT2A receptors (Rattus norvegicus, UniProt P14842); experiment: specific binding to 5-HT2A receptors ([3H]ketanserin, rat cortex membrane); settings: for IC50: [3H]ketanserin 0.5 nM, rat cortex, 30 min, 35° C., pH 7.4; for potency as ligand of 5-HT2A receptors versus compound of Example 2' of ES 9600323: in words, from Table 1
T2 construct: membrane corresponding to 1 mg of rat cortex; from tissue; host or cells: rat cortex membrane
T2 sequence (P14842 whole entry): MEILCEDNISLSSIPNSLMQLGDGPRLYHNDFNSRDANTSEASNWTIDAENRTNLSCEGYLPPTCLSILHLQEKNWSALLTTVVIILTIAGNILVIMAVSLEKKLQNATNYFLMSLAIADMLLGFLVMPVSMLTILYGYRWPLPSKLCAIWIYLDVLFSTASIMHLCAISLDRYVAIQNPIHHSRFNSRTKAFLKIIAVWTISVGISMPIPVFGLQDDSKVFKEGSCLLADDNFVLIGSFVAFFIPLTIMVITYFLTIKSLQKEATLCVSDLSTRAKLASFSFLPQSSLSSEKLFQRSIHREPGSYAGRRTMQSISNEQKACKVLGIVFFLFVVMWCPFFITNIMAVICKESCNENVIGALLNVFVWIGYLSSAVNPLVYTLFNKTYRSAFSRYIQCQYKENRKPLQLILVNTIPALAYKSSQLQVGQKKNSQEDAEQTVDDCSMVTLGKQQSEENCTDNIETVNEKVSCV

[6] = target: D2 receptors (Rattus norvegicus, UniProt P61169); experiment: specific binding to D2 receptors ([3H]spiperone, rat striatum membrane); settings: in words, from Table 1
Sequence of D2 receptors (P61169 whole entry): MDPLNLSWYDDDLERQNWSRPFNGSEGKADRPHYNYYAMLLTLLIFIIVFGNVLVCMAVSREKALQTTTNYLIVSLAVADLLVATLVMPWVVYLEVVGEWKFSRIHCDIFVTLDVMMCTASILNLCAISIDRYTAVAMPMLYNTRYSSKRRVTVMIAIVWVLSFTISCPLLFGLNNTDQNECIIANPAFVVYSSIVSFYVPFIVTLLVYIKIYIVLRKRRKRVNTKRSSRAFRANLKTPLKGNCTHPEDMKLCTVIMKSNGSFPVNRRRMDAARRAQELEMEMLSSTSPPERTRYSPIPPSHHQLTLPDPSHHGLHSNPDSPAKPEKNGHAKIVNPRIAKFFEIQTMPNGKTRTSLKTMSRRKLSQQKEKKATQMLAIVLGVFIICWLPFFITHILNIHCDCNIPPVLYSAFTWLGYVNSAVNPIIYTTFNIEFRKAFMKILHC

[7] = oral, male Swiss mice, apomorphine 1 mg/kg s.c. after 60 minutes

Structure (SMILES)	TD50 ([1]; in vivo) [mg/kg]	ED50 [2, 7] [mg/kg]	selectivity ratio [3]	therapeutic index versus compound of Example 2' of ES 9600323 and haloperidol [3]	TD50 ([1]; po) [mg/kg]	IC50 [4] [nM]	potency as ligand of H1 receptors versus compound of Example 2' of ES 9600323 [4]	IC50 [5] [nM]	potency as ligand of 5-HT2A receptors versus compound of Example 2' of ES 9600323 [5]	potency as ligand of D2 receptors versus compound of Example 2' of ES 9600323 [6]	further results
O=C(CCCN1CCC(O)(c2ccc(Cl)cc2)CC1)c1ccc(F)cc1 [Haloperidol, haloperidol, reference compound]	2	0.32									
COCc1coc2cc(OCCCN3CCC(c4noc5cc(F)ccc45)CC3)ccc2c1=O.Cl [Example 3, 7-[3-[4-(6-fluorobenzo[d]isoxazole-3-yl)piperidin-1-yl]propoxy]-3-methoxymethyl-chromen-4-one hydrochloride]		0.21	32.3	higher therapeutic index	6.79	0.339	more potent				potency as ligand of H1 receptors versus promethazine ([4]; hydrochloride): of the same order as promethazine; also recorded: greater than that of standard promethazine
Cl.O=C(O)c1coc2cc(OCCCN3CCC(c4noc5cc(F)ccc45)CC3)ccc2c1=O [Example 2, 7-[3-[4-(6-fluorobenzo[d]isoxazole-3-yl)piperidin-1-yl]propoxy]-4-oxochromene-3-carboxylic acid hydrochloride]								0.594	more potent	more potent	
O=c1c(CO)coc2cc(OCCCN3CCC(c4noc5cc(F)ccc45)CC3)ccc12 [Ex. 2' (ES 9600323), reference compound]	3.8							3.08			IC50 ([4]; [3H]-pyrilamine 1 nM, guinea-pig cerebellum, 25° C., 60 minutes, read-out: IC50, H1 receptors): 1.2 nM; ED50 ([2]; po): 0.25 mg/kg
Cl.O=c1cc(CO)oc2cc(OCCCN3CCC(c4noc5cc(F)ccc45)CC3)ccc12 [Example 6, 7-[3-[4-(6-fluorobenzo[d]isoxazole-3-yl)piperidin-1-yl]propoxy]-2-(hydroxymethyl)-chromen-4-one hydrochloride]		5.87	> 17	higher therapeutic index	> 100	1.01	more potent				potency as ligand of H1 receptors versus promethazine [4]: of the same order as promethazine
O=Cc1coc2cc(OCCCN3CCC(c4noc5cc(F)ccc45)CC3)ccc2c1=O [Example 1, 7-[3-[4-(6-fluorobenzo[d]isoxazole-3-yl)piperidine-1-yl]propoxy]-3-formyl-chromen-4-one]								2.11	more potent	more potent	
